Laboratory results reported in US5055469A, “Quaternary pyridinium salts useful for ulcer treatment” (Hamari Chemicals, Ltd., priority 1988, dated 1991).

Key:
[1] = tested on: Slc:SD rats; test: Water-immersion stress ulceration method (antiulcer activity); assay type: in vivo, rat (male Slc:SD); details: 30 minutes before stress loading; for U.I. (ulcer index) Mean ± S.E.: non-treated control 13.4 ± 2.71
Method: After stress loading for 7 hours, the rats were killed through exsanguination, and the stomachs were removed, perfused in the inside with 10 ml of 2% formalin and then immersed in the same solution for 10 minutes for fixation. The stomachs were incised along the greater curvature, and the ulcers thus induced were measured for length under the stereoscopic microscope (magnification×10), whereby the total sum of the lengths was taken as an ulcer index (U.I., in mm). The test substance was given orally to rats in the form of a 4% gum arabic suspension 30 minutes before stress loading.

[2] = Acute toxicity; parameters: species or system mouse (male ddY); details: mouse, in vivo; mice, oral, single dose, observed for 7 days
Source text: A group of five male ddY mice (4-weeks aged) was used for testing.
The compound of Example 4 was suspended in 4% gum arabic solution to prepare a test pharmaceutical, which was given orally to each test animal once.

[3] = 30 mg/kg orally, test substance marked *p < 0.05

| SMILES | U.I. (ulcer index) Mean ± S.E. ([1]; 30 mg/kg orally) | Inhibition rate [1, 3] | Inhibition rate ([1]; 10 mg/kg orally) | U.I. (ulcer index) Mean ± S.E. ([1]; 10 mg/kg orally) | Inhibition rate ([1]; 100 mg/kg orally, marked **p < 0.01) | U.I. (ulcer index) Mean ± S.E. ([1]; 100 mg/kg orally) | LD50 at 168 h [2] |
| --- | --- | --- | --- | --- | --- | --- | --- |
| CN/C(=N/CCSCc1nc[nH]c1C)NC#N [Cimetidine, reference compound] | 5.2 ± 3.40 mm | 61.4% |  |  |  |  |  |
| Cc1ccc(Nc2ccccc2NC(=O)C[n+]2ccccc2)cc1.[Cl-] [Example 4, 1-[2-[[2-[(4-methylphenyl)amino]phenyl]amino]-2-oxoethyl]pyridinium chloride] | 3.3 ± 1.82 mm | 75.1% | 19.0% | 10.8 ± 3.15 mm | 90.0% | 1.3 ± 0.88 mm | ≥ 2000 mg/kg |
